21 compounds from patent publication US20180370927A1, “MICROBIOCIDAL OXADIAZOLE DERIVATIVES” (SYNGENTA PARTICIPATIONS AG, priority 2015, published 2018) can be followed below.

One assay relates to Phakopsora pachyrhizi. The assay can be described thus: Phakopsora pachyrhizi / soybean / leaf disc preventative (Asian soybean rust). The assay is classed as in vivo. Particulars: foliar, 200 ppm in the applied formulation, soybean leaf disks, assessed 12 to 14 days after application, read-out: disease control compared to untreated control leaf disks. As for the experimental part:
(§1) Leaf disks or leaf segments of various plant species are cut from plants grown in a greenhouse. The cut leaf disks or segments are placed in multiwell plates (24-well format) onto water agar. The leaf disks are sprayed with a test solution before (preventative) or after (curative) inoculation. Compounds to be tested are prepared as DMSO solutions (max. 10 mg/mL) which are diluted to the appropriate concentration with 0.025% Tween20 just before spraying. The inoculated leaf disks or segments are incubated under defined conditions (temperature, relative humidity, light, etc.) according to the respective test system. A single evaluation of disease level is carried out 3 to 14 days after inoculation, depending on the pathosystem. Percent disease control relative to the untreated check leaf disks or segments is then calculated.
Example 3: Fungicidal Activity Against Phakopsora pachyrhizi/Soybean/Leaf Disc Preventative (Asian Soybean Rust)
Soybean leaf disks are placed on water agar in multiwell plates (24-well format) and sprayed with the formulated test compound diluted in water. One day after application leaf discs are inoculated by spraying a spore suspension on the lower leaf surface. After an incubation period in a climate cabinet of 24-36 hours in darkness at 20° C. and 75% relative humidity leaf disc are kept at 20° C. with 12 hours light/day and 75% relative humidity. The activity of a compound is assessed as percent disease control compared to untreated when an appropriate level of disease damage appears in untreated check leaf disks (12 to 14 days after application).
(§2) The following compounds at 200 ppm in the applied formulation give at least 80% disease control in this test when compared to untreated control leaf disks under the same conditions, which show extensive disease development.

For assay [1], the system named is Puccinia recondita f. Sp. Tritici. Description: Puccinia recondita f. sp. tritici / wheat / leaf disc preventative (brown rust). The class given is in vivo. Particulars: foliar, 200 ppm in the applied formulation, wheat leaf segments, preventative, assessed 7 to 9 days after application, read-out: disease control compared to untreated control leaf disks. Summed up: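 Wheat cv. Kanzler leaf segments on agar sprayed with formulated compound in water, inoculated with rust spores 1 day later. Incubated at 19° C, 75% rh, 12 h light/12 h dark; percent disease control versus untreated scored 7 to 9 days after application; tested at 200 ppm.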

Assay [2] relates to Glomerella lacenarium (Colletotrichum lacenarium). The assay can be described thus: Glomerella lacenarium (Colletotrichum lacenarium) liquid culture / cucumber / preventative (anthracnose). The assay is classed as cell-based. Particulars: 20 ppm in the applied formulation, liquid culture in PDB, 24° C., 3 to 4 days after application, read-out: disease control (inhibition of growth, photometric) compared to untreated control. An outline of the steps:
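At 20 ppm in the applied formulation, compounds were mixed with fungal spores in potato dextrose broth and held at 24° C. After 3–4 days, photometric growth measurement gave percent antifungal activity relative to untreated control.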

Assay [3] has as its system Puccinia recondita f. Sp. Tritici. The assay can be described thus: Puccinia recondita f. sp. tritici / wheat / leaf disc curative (brown rust). The assay is classed as in vivo. Particulars: foliar, 200 ppm in the applied formulation, wheat leaf segments, curative (applied 1 day after inoculation), assessed 6 to 8 days after application, read-out: disease control compared to untreated control leaf disks. As for the experimental part:
as §1
Example 2: Fungicidal Activity Against Puccinia recondita f. Sp. Tritici/Wheat/Leaf Disc Curative (Brown Rust)
Wheat leaf segments cv. Kanzler are placed on agar in multiwell plates (24-well format). The leaf segments are then inoculated with a spore suspension of the fungus. Plates were stored in darkness at 19° C. and 75% relative humidity. The formulated test compound diluted in water was applied 1 day after inoculation. The leaf segments were incubated at 19° C. and 75% relative humidity under a light regime of 12 hours light/12 hours darkness in a climate cabinet and the activity of a compound was assessed as percent disease control compared to untreated when an appropriate level of disease damage appears in untreated check leaf segments (6 to 8 days after application).
as §2

What is called inhibition is the percentage by which the read-out fell short of the control.

Consider `Cc1cc(-c2noc(C(F)(F)F)n2)ccc1CNC(=O)C(=O)c1ccco1` [Compound 1.86], for which the pest or weed control at 200 ppm (in the assay on Phakopsora pachyrhizi; in assay [1]) was at least 80% throughout.
As for `NC(=O)C(=O)NCc1ccc(-c2noc(C(F)(F)F)n2)c(F)c1F` [Compound 4.84, N′-[[2,3-difluoro-4-[5-(trifluoromethyl)-1,2,4-oxadiazol-3-yl]phenyl]methyl] oxamide], the pest or weed control at 200 ppm with Phakopsora pachyrhizi is at least 80%. Further, the inhibition at 20 ppm in assay [2] was at least 80%.
Regarding `NC(=O)C(=O)NCCc1ccc(-c2noc(C(F)(F)F)n2)cc1` [Compound 4.85, N′-[2-[4-[5-(trifluoromethyl)-1,2,4-oxadiazol-3-yl]phenyl]ethyl] oxamide], in the assay with Phakopsora pachyrhizi, the pest or weed control at 200 ppm is at least 80%. In assay [2], the inhibition at 20 ppm was at least 80%.
On to `CCCCON(Cc1ccc(-c2noc(C(F)(F)F)n2)cc1)C(=O)C(=O)CC` [Compound 1.30, N-butoxy-2-oxo-N-[[4-[5-(trifluoromethyl)-1,2,4-oxadiazol-3-yl]phenyl]methyl]butanamide], for which, in the assay on Phakopsora pachyrhizi, the pest or weed control at 200 ppm is at least 80%. Moreover, the inhibition at 20 ppm in assay [2] is at least 80%.
In the case of `Cc1cc(-c2noc(C(F)(F)F)n2)ccc1CNC(=O)C(=O)c1ccccc1` [Compound 1.65, N-[[2-methyl-4-[5-(trifluoromethyl)-1,2,4-oxadiazol-3-yl]phenyl]methyl]-2-oxo-2-phenyl-acetamide], the pest or weed control at 200 ppm (in the assay on Phakopsora pachyrhizi; in assay [1]) was at least 80% throughout.
For `Cc1cc(-c2noc(C(F)(F)F)n2)ccc1CNC(=O)C(=O)c1cccs1` [Compound 1.66, N-[[2-methyl-4-[5-(trifluoromethyl)-1,2,4-oxadiazol-3-yl]phenyl]methyl]-2-oxo-2-(2-thienyl)acetamide], the pest or weed control at 200 ppm (in the assay with Phakopsora pachyrhizi; in assay [1]) was at least 80% in each case.
As for `CCC(=O)C(=O)N(C)c1ccc(-c2noc(C(F)(F)F)n2)cc1` [Compound 1.34, N-methyl-2-oxo-[4-[5-(trifluoromethyl)-1,2,4-oxadiazol-3-yl]phenyl]butanamide], in the assay on Phakopsora pachyrhizi, the pest or weed control at 200 ppm was at least 80%.
For the compound `Cc1cc(-c2noc(C(F)(F)F)n2)ccc1CNC(=O)C(=O)C(C)(C)C` [Compound 1.67, 3,3-dimethyl-N-[[2-methyl-4-[5-(trifluoromethyl)-1,2,4-oxadiazol-3-yl]phenyl]methyl]-2-oxo-butanamide], in the assay with Phakopsora pachyrhizi, the pest or weed control at 200 ppm was at least 80%. Besides, the inhibition at 20 ppm in assay [2] was at least 80%.
As to `CCC(C)N(Cc1ccc(-c2noc(C(F)(F)F)n2)cc1)C(=O)C(N)=O` (stereo not drawn) [Compound 4.13, N′-sec-butyl-N′-[[4-[5-(trifluoromethyl)-1,2,4-oxadiazol-3-yl]phenyl]methyl] oxamide], the pest or weed control at 200 ppm in assay [1] and in assay [3] was at least 80% each time. Further, the inhibition at 20 ppm in assay [2] was at least 80%.
Consider `CON(Cc1ccc(-c2noc(C(F)(F)F)n2)cc1)C(=O)C(=O)NC(C)C` [Compound 4.64, N-isopropyl-N′-methoxy-N′-[[4-[5-(trifluoromethyl)-1,2,4-oxadiazol-3-yl]phenyl]methyl] oxamide], for which the pest or weed control at 200 ppm in assay [1] and in assay [3] was at least 80% throughout. In assay [2], the inhibition at 20 ppm is at least 80%.
Turning to `CCOC(=O)C(=O)N(Cc1ccc(-c2noc(C(F)(F)F)n2)cc1)OC` [Compound 3.10, ethyl 2-[methoxy-[[4-[5-(trifluoromethyl)-1,2,4-oxadiazol-3-yl]phenyl]methyl]amino]-2-oxo-acetate], the pest or weed control at 200 ppm in assay [1] and in assay [3] was at least 80% in each case. For the same compound, the inhibition at 20 ppm in assay [2] was at least 80%.
As to `CC(C)CC(=O)C(=O)NCc1ccc(-c2noc(C(F)(F)F)n2)cc1Cl` [Compound 1.61, N-[[2-chloro-4-[5-(trifluoromethyl)-1,2,4-oxadiazol-3-yl]phenyl]methyl]-4-methyl-2-oxo-pentanamide], the pest or weed control at 200 ppm (in the assay with Phakopsora pachyrhizi; in assay [1]) was at least 80% in each case.
For the compound `CCCC(=O)C(=O)N(Cc1ccc(-c2noc(C(F)(F)F)n2)cc1)CC1CC1` [Compound 1.6, N-(cyclopropyl-methyl)-2-oxo-N-[[4-[5-(trifluoromethyl)-1,2,4-oxadiazol-3-yl]phenyl]methyl]pentanamide], in the assay with Phakopsora pachyrhizi, the pest or weed control at 200 ppm is at least 80%. Further, the inhibition at 20 ppm in assay [2] is at least 80%.
For the compound `CCCONC(=O)C(=O)NCc1ccc(-c2noc(C(F)(F)F)n2)cc1` [Compound 4.42, N′-propoxy-N-[[4-[5-(trifluoromethyl)-1,2,4-oxadiazol-3-yl]phenyl]methyl] oxamide], the pest or weed control at 200 ppm in assay [1] and in assay [3] was at least 80% each time. The inhibition at 20 ppm in assay [2] is at least 80%.
For the compound `CON(Cc1ccc(-c2noc(C(F)(F)F)n2)cc1)C(=O)C(=O)NC1CCC1` [Compound 4.72, N-cyclobutyl-N′-methoxy-N′-[[4-[5-(trifluoromethyl)-1,2,4-oxadiazol-3-yl]phenyl]methyl] oxamide], the pest or weed control at 200 ppm in assay [1] and in assay [3] was at least 80% in each case. The inhibition at 20 ppm in assay [2] is at least 80%.
`CON(Cc1ccc(-c2noc(C(F)(F)F)n2)cc1)C(=O)C(=O)NCC(C)C` [Compound 4.67, N-isobutyl-N′-methoxy-N′-[[4-[5-(trifluoromethyl)-1,2,4-oxadiazol-3-yl]phenyl]methyl] oxamide]: the pest or weed control at 200 ppm in assay [1] and in assay [3] was at least 80% in each case. The inhibition at 20 ppm in assay [2] was at least 80%.
In the case of `COCCN(Cc1ccc(-c2noc(C(F)(F)F)n2)cc1)C(=O)C(N)=O` [Compound 4.12, N′-(2-methoxyethyl)-N′-[[4-[5-(trifluoromethyl)-1,2,4-oxadiazol-3-yl]phenyl]methyl] oxamide], the pest or weed control at 200 ppm in assay [1] and in assay [3] was at least 80% in each case. Besides, in assay [2], the inhibition at 20 ppm was at least 80%.
As to `CCCNC(=O)C(=O)N(Cc1ccc(-c2noc(C(F)(F)F)n2)cc1)OC` [Compound 4.77, N′-methoxy-N-propyl-N′-[[4-[5-(trifluoromethyl)-1,2,4-oxadiazol-3-yl]phenyl]methyl] oxamide], the pest or weed control at 200 ppm in assay [1] and in assay [3] was at least 80% in each case. The inhibition at 20 ppm in assay [2] is at least 80%.
As for `O=C(NCc1ccc(-c2noc(C(F)(F)F)n2)c(F)c1F)C(=O)c1ccco1` [Compound 1.81, N-[[2,3-difluoro-4-[5-(trifluoromethyl)-1,2,4-oxadiazol-3-yl]phenyl]methyl]-2-(2-furyl)-2-oxo-acetamide], the pest or weed control at 200 ppm in the assay on Phakopsora pachyrhizi was at least 80%. For the same compound, the inhibition at 20 ppm in assay [2] is at least 80%.
On to `COC(=O)C(=O)N(Cc1ccc(-c2noc(C(F)(F)F)n2)cc1)OC` [Compound 3.2, methyl 2-[methoxy-[[4[5-(trifluoromethyl)-1,2,4-oxadiazol-3-yl]phenyl]methyl]amino]-2-oxo-acetate], for which the pest or weed control at 200 ppm in assay [1] and in assay [3] was at least 80% throughout. Besides, in assay [2], the inhibition at 20 ppm was at least 80%.
For `CC(=O)C(=O)NCc1ccc(-c2noc(C(F)(F)F)n2)cc1F` [Compound 1.26, N-[[2-fluoro-4-[5-(trifluoromethyl)-1,2,4-oxadiazol-3-yl]phenyl]methyl]-2-oxo-propanamide], the pest or weed control at 200 ppm in assay [1] and in assay [3] was at least 80% in each case. Also, in assay [2], the inhibition at 20 ppm is at least 80%.
